{
  "source": "patent US8658403B2",
  "about": "“Method for producing polyhydroxyalkanoic acid” (priority 2009, dated 2014)",
  "type_in_all_cases": "cell-based, Pseudomonas fluorescens",
  "key": {"BM07-ΔphaZ [1]": {"tested_on": "BM07-ΔphaZ", "assay": "PHA production, one-step cultivation on 50 mM fructose and 5 mM 11-POU", "settings": "1 mM salicylic acid, 50 mM fructose + 5 mM 11-POU; for Dry cell weight / PHA (aliphatic monomer) / PHA (aromatic monomer) / Polyester content: 30° C.", "method": "(§1) In the main cultures, 500 μl of the culture grown in NR or LB medium was transferred to 50 ml M1 mineral-salts medium containing 50 mM fructose, 5 mM 11-POU, 0 or 1 mM salicylic acid and 1.0 g/L ammonium sulfate in a 250 mL flask and cultivated at 30° C. Salicylic acid was dissolved by adding sodium hydroxide and the pH of the solution was adjusted to 7.2 before adding to medium. Cell growth was determined by measuring dry cell weight (DCW). The remaining fructose was measured using DNS method and the remaining 11-POU or other carboxylic acids were determined by gas chromatography. The cells were isolated by centrifuging (10,000×g, 10 min), the cell suspension was washed with methanol and dried under vacuum at room temperature for 48 hours. The remaining NH4^+ was measured using Nessler's reagent. In the time-course profiling experiments, a set of culture flasks equal to the planned sampling times (every 4 or 6 h) was prepared and cultivated under the same culture condition. One of the flasks was withdrawn every scheduled time and the medium (50 ml) was centrifuged and analyzed.\n(§2) The monomer composition of the PHA in cells was determined by analyzing the methyl esters, recovered from a sulfuric acid/methanol treatment of the cells, using a Hewlett-Packard HP5890 Series II gas chromatograph equipped with a HP-1 capillary column and a flame ionization detector. The gas chromatography (GC) run conditions were as follows: initial temperature of 80° C. for 2 min; heating rate of 8° C./min; final temperature of 250° C. for 6.75 min; carrier (He) flow rate of 3 ml/min; injector temperature of 230° C.; and detector temperature of 280° C. The standardization of each GC peak was made against the PHA of known structure characterized by quantitative NMR analyses"}, "[2]": {"tested_on": "P. fluorescens BM07 wild-type", "assay": "PHA production, one-step cultivation on 50 mM fructose and 5 mM 11-POU", "settings": "1 mM salicylic acid, 50 mM fructose + 5 mM 11-POU; for Dry cell weight / PHA (aliphatic monomer) / PHA (aromatic monomer) / Polyester content: 30° C.", "method": "as §1, §2"}, "BM07 (pBBR-phaZ)": {"tested_on": "BM07 (pBBR-phaZ)", "assay": "PHA production on 50 mM fructose/5 mM 11-POU in PhaZ over-expressed strain", "settings": "1 mM salicylic acid", "method": "as §1, with “In the time-course profiling experiments, a set of culture flasks equal to the planned sampling times (every 4 or 6 h) was prepared and cultivated under the same culture condition.” left out\nThe monomer composition of the PHA in cells was determined by analyzing the methyl esters, recovered from a sulfuric acid/methanol treatment of the cells, using a Hewlett-Packard HP5890 Series II gas chromatograph equipped with a HP-1 capillary column and a flame ionization detector. […] The standardization of each GC peak was made against the PHA of known structure characterized by quantitative NMR analyses"}, "BM07 wild-type": {"tested_on": "BM07 wild-type", "assay": "Aromatic PHA production, one-step cultivation on 50 mM fructose and 10 mM 5-PV or 6PC", "settings": "1 mM salicylic acid, 30° C.", "method": "as §1, with “In the main cultures, 500 μl of the culture grown in NR or LB medium was transferred to 50 ml M1 mineral-salts medium containing 50 mM fructose, 5 mM 11-POU, 0 or 1 mM salicylic acid and 1.0 g/L ammonium sulfate in a 250 mL flask and cultivated at 30° C.” left out\nas §2"}, "BM07-ΔphaZ [3]": {"tested_on": "BM07-ΔphaZ", "assay": "Aromatic PHA production, one-step cultivation on 50 mM fructose and 10 mM 5-PV or 6PC", "settings": "1 mM salicylic acid, 30° C., culture time 72 h", "method": "as §1, with “In the main cultures, 500 μl of the culture grown in NR or LB medium was transferred to 50 ml M1 mineral-salts medium containing 50 mM fructose, 5 mM 11-POU, 0 or 1 mM salicylic acid and 1.0 g/L ammonium sulfate in a 250 mL flask and cultivated at 30° C.” left out\nas §2"}, "[4]": {"settings": "50 mM fructose + 10 mM 5PV, culture time 72 h"}, "[5]": {"settings": "50 mM fructose + 10 mM 6PC, culture time 60 h"}},
  "data": [
    {"smiles": "O=C(O)c1ccccc1O", "note": "[Salicylic acid, salicylic acid]", "values": [
      {"measurement": "Content of aliphatic MCL-monomer-units, share of the total PHA", "setting": "BM07-ΔphaZ [1]", "result": "~10", "unit": "%"},
      {"measurement": "Effect on accumulation of aromatic PHA from 11-POU", "setting": "BM07-ΔphaZ [1]", "result": "significantly retarded the accumulation of aromatic PHA from 11-POU"},
      {"measurement": "Effect on cell growth", "setting": "BM07-ΔphaZ [1]", "result": "did not significantly delay the cell growth"},
      {"measurement": "Time of maximum PHA accumulation", "setting": "BM07-ΔphaZ [1]", "result": "around 70 hours"},
      {"measurement": "Time of maximum cell growth", "setting": "BM07-ΔphaZ [1]", "result": "50 to 60", "unit": "h"},
      {"measurement": "Dry cell weight", "setting": "BM07-ΔphaZ [1]; culture time 72 h", "result": "1.68 ± 0.11", "unit": "g/L"},
      {"measurement": "PHA (aliphatic monomer)", "setting": "BM07-ΔphaZ [1]; culture time 72 h", "result": "4.8 ± 0.3", "unit": "wt. %"},
      {"measurement": "PHA (aromatic monomer)", "setting": "BM07-ΔphaZ [1]; culture time 72 h", "result": "44.1 ± 1.6", "unit": "wt. %"},
      {"measurement": "Polyester content", "setting": "BM07-ΔphaZ [1]; culture time 72 h", "result": "48.9 ± 1.9", "unit": "wt. %"},
      {"measurement": "Dry cell weight", "setting": "BM07-ΔphaZ [1]; culture time 96 h", "result": "1.72 ± 0.09", "unit": "g/L"},
      {"measurement": "PHA (aliphatic monomer)", "setting": "BM07-ΔphaZ [1]; culture time 96 h", "result": "4.3 ± 0.4", "unit": "wt. %"},
      {"measurement": "PHA (aromatic monomer)", "setting": "BM07-ΔphaZ [1]; culture time 96 h", "result": "48.7 ± 1.4", "unit": "wt. %"},
      {"measurement": "Polyester content", "setting": "BM07-ΔphaZ [1]; culture time 96 h", "result": "53.0 ± 1.8", "unit": "wt. %"},
      {"measurement": "Incorporation of aliphatic monomer-units, share of the total PHA content", "setting": "[2]", "result": "~10", "unit": "%"},
      {"measurement": "Dry cell weight", "setting": "[2]; culture time 48 h", "result": "1.36 ± 0.10", "unit": "g/L"},
      {"measurement": "PHA (aliphatic monomer)", "setting": "[2]; culture time 48 h", "result": "3.1 ± 0.2", "unit": "wt. %"},
      {"measurement": "PHA (aromatic monomer)", "setting": "[2]; culture time 48 h", "result": "20.8 ± 0.9", "unit": "wt. %"},
      {"measurement": "Polyester content", "setting": "[2]; culture time 48 h", "result": "23.9 ± 1.1", "unit": "wt. %"},
      {"measurement": "Dry cell weight", "setting": "[2]; culture time 72 h", "result": "1.78 ± 0.06", "unit": "g/L"},
      {"measurement": "PHA (aliphatic monomer)", "setting": "[2]; culture time 72 h", "result": "2.5 ± 0.5", "unit": "wt. %"},
      {"measurement": "PHA (aromatic monomer)", "setting": "[2]; culture time 72 h", "result": "26.8 ± 1.6", "unit": "wt. %"},
      {"measurement": "Polyester content", "setting": "[2]; culture time 72 h", "result": "29.3 ± 2.1", "unit": "wt. %"},
      {"measurement": "Incorporation of aliphatic monomer-units, share of the total PHA content at the maximum accumulation", "setting": "BM07 (pBBR-phaZ)", "result": "< 4", "unit": "%"},
      {"measurement": "Aromatic PHA content", "setting": "BM07 wild-type; [4]", "result": "34.2 ± 1.5", "unit": "wt. %"},
      {"measurement": "Dry cell weight", "setting": "BM07 wild-type; [4]", "result": "1.98 ± 0.08", "unit": "g/L"},
      {"measurement": "Aromatic PHA content", "setting": "BM07 wild-type; [5]", "result": "32.8 ± 1.7", "unit": "wt. %"},
      {"measurement": "Dry cell weight", "setting": "BM07 wild-type; [5]", "result": "1.78 ± 0.13", "unit": "g/L"},
      {"measurement": "Aromatic PHA content", "setting": "BM07-ΔphaZ [3]; 50 mM fructose + 10 mM 5PV", "result": "49.9 ± 1.3", "unit": "wt. %"},
      {"measurement": "Dry cell weight", "setting": "BM07-ΔphaZ [3]; 50 mM fructose + 10 mM 5PV", "result": "2.10 ± 0.06", "unit": "g/L"},
      {"measurement": "Aromatic PHA content", "setting": "BM07-ΔphaZ [3]; 50 mM fructose + 10 mM 6PC", "result": "35.1 ± 1.2", "unit": "wt. %"},
      {"measurement": "Dry cell weight", "setting": "BM07-ΔphaZ [3]; 50 mM fructose + 10 mM 6PC", "result": "1.72 ± 0.08", "unit": "g/L"}
    ]}
  ]
}
